Data on 5 compounds can be found in article PMC6862289, “Metabolic Profile, Bioavailability and Toxicokinetics of Zearalenone-14-Glucoside in Rats after Oral and Intravenous Administration by Liquid Chromatography High-Resolution Mass Spectrometry and Tandem Mass Spectrometry” (International Journal of Molecular Sciences, 2019).

Read-outs that look alike come from different tables or passages of the source.

For data set [1] the following is noted: broiler chickens; cited from earlier work.
For data set [2] the following is noted: pigs; cited from earlier work.
A short description of data set [3]: Toxicokinetics of ZEN-14G in rats after oral and intravenous administration (plasma LC-MS/MS, non-compartmental analysis). The class given is in vivo, Wistar rats. As to conditions: for level detected in plasma after oral administration of ZEN-14G: p.o. ZEN-14G 0.75 mg/kg, Figure 3A; for k el: mean ± SD, n = 12, read-out: λZ (elimination rate constant) (converted); for AUC(0-inf): read-out: AUC0-infinity; for half-life: read-out: Elimination t1/2 (converted); for amount observed in plasma after intravenous administration of ZEN-14G: i.v. ZEN-14G 0.75 mg/kg, Figure 3D. As for the experimental part: The validated LC-MS/MS method was eligible for the toxicokinetic characterization of ZEN-14G in rats. The obtained data (above the LOQ) were analyzed via non-compartmental analysis using WinNonlin 6.3 software (Pharsight Co. Mountain View, CA, USA). The area under the plasma concentration–time curve (AUC) was obtained using the trapezoidal rule with extrapolation to infinity. […] The half-life period of ZEN in pigs was much longer than ZEN-14G in rats, which may be attributed to enterohepatic circulation. […] The low absolute bioavailability of ZEN-14G might be due to the deglycosylation of ZEN-14G to ZEN. The CL and VZ are extremely different between oral (p.o.) and intravenous (i.v.) administration. The VZ depends on the total mass absorbed and the plasma concentration. For oral administration, the low plasma concentration of ZEN-14G may because ZEN-14G appeared to be distributed into a very large volume or rapidly biotransformed into other compounds. The low oral bioavailability and low plasma concentration of ZEN-14G led to the […] VZ than that of i.v. administration. […] CL is the volume of blood from which a compound is removed per unit time. In comparison with p.o., much more of ZEN-14G was absorbed in the plasma after intravenous injection (i.v.)—more volume of blood cleared of ZEN-14G per unit time.
ZEN-14G was dissolved in aqueous solution containing 0.5% carboxymethyl cellulose. We selected twelve Wistar rats (half male and half female, with an average weight of 180 g, obtained from Vital River Laboratory Animal Technology Co. Ltd (Beijing, China). The rats were raised for one week for acclimation before the experiment, and the rats went through a 12 h fast before dosing. Six rats were treated with ZEN-14G via oral gavage at a dosage of 0.75 mg/kg body weight followed by blood collection at 0.083, 0.16, 0.25, 0.5, 0.75, 1.0, 1.5, 2, 4, and 6 h post administration while the other six rats were administered with the same amount of ZEN-14G intravenously and the blood samples were collected at the same time points. After a one-week withdrawal period, a crossover design was used for the following experiment where the rats administered orally would receive intravenous administration and vice versa. […] All the animal experiments complied with the National Institutes of Health guide for the care and use of laboratory animals, which has been approved on 20 March 2018 by the ethical committee of China Agricultural University (Beijing, China) (2018-SYXK-0238).
We extracted 100 μL of plasma using 100 μL of acetonitrile followed by centrifugation for 5 min at 14,000× g at 4 °C. This analytical method was established based on the published literature. The supernatant was gathered, evaporated until dry and eventually re-dissolved in 100 μL of 15% acetonitrile. This analytical method was soundly validated in plasma before application.
The separation and identification of ZEN-14G and its metabolites were performed on a Phenomenex column (Kinetex 50 mm × 2.1 mm i.d. 1.7 μm particle size, C18) using an ultra-high-performance liquid chromatograph (Agilent 1260 Infinity) coupled to a triple quadrupole mass spectrometer (Agilent 6495) under negative ESI mode (Agilent Technologies, Palo Alto, CA, USA). The chromatographic separations were achieved through a gradient elution program. Mobile phase A was water containing 0.1% formic acid, and phase B was acetonitrile containing 0.1% formic acid. The gradient elution program for phase B was listed as: 0–1 min, 0%–15%; 1–2 min, 15%–45%; 2–4 min, 45%–90%; 4–5 min, 90%; 5–5.1 min, 90%–15%; and 5.1–6.0 min, 15%. The key parameters for the mass spectrometer were as follows: capillary voltage (3.5 kV); gas temperature (250 °C); gas flow (11 L/min); nebulizer (45 psi); sheath gas temperature (350 °C); and sheath gas flow (12 L/min). Furthermore, the detailed information on precursor ions and the product ions of ZEN-14G and quantifiable products are described in Table S1. […]

For data set [4] the following is noted: female pigs; cited from earlier work.
The conditions of data set [5]: poultry; cited from earlier work.
The conditions of data set [6]: rats; cited from earlier work.
A further data set deals with estrogenic receptors. Details: method as in PMID 32625539. As to conditions: compared with ZEN; cited from earlier work.
[7] abbreviates: both sexes, Wistar, rat, in vivo, iv, 0.75 mg/kg body weight.
[8] abbreviates: both sexes, Wistar, rat, in vivo, po, 0.75 mg/kg body weight.

Consider `CC1=C[C@H]2O[C@@H]3[C@H](O[C@@H]4O[C@H](CO)[C@@H](O)[C@H](O)[C@H]4O)C[C@](C)([C@@]2(CO)[C@H](O)C1=O)[C@]31CO1` [DON-3G, deoxynivalenol-3-β-D-glucoside], for which the absolute oral bioavailability was 3.79% in data set [1] and 16.1% in data set [2].

As to `C[C@H]1CCCC(=O)CCC/C=C/c2cc(O)cc(O)c2C(=O)O1` [ZEN, Zearalenone], in data set [3] (after i.v. ZEN-14G 0.75 mg/kg body weight), the “yield of ZEN in plasma relative to that of ZEN-14G” value is on record as “approximately 4.5 times”. The “level detected in plasma after oral administration of ZEN-14G” value in data set [3] is “trace level”. Further, the absolute oral bioavailability entry in data set [4] is reported as “around 51.5%”. Besides, the oral bioavailability in data set [5] and in data set [6] was 10% throughout.

In general, bioavailability refers to dose-corrected exposure relative to a reference, in per cent. The AUC(0-t) is the area under the concentration-time curve up to a stated or last time point. Higher therefore signals more exposure. By MRT is commonly meant a mean duration of stay, worked out from the concentration-time curve. The term Cmax denotes the maximum level reached in the sampled fluid or tissue. By Tmax is commonly meant the time at which the peak concentration occurs. Regarding `CC1CCCC(=O)CCC/C=C/c2cc(OC3OC(CO)C(O)C(O)C3O)cc(O)c2C(=O)O1` (stereo not drawn) [ZEN-14G, Zearalenone-14-glucoside], the visible adverse phenomena entry in data set [3] (0.75 mg/kg body weight, any route of administration (p.o., i.v.)) is reported as “No visible adverse phenomena”. In data set [3] (both sexes, Wistar, rat, in vivo, 0.75 mg/kg, AUC oral / AUC intravenous × 100%, 0.75 mg/kg body weight, read-out: F (absolute oral bioavailability)), the bioavailability was around 9%. For the same compound, in data set [3] (setting [7]), the exposure AUC(0-t) stood at 1.79 ± 0.03 ng·h/mL, the k el was 0.000883 s⁻¹, the AUC(0-inf) was 1.8 ± 0.02 ng·h/mL and the half-life is 13.2 ± 1.8 min. Further, in data set [3] (both sexes, Wistar, rat, in vivo, iv, 0.75 mg/kg, i.v., 0.75 mg/kg body weight, read-out: MRT (mean residence time)), the mean residence time MRT amounted to 12 ± 1.8 min. Moreover, in data set [3] (both sexes, Wistar, rat, in vivo, iv, 0.75 mg/kg, i.v., 0.75 mg/kg body weight, read-out: VZ (apparent volume of distribution)), the Vd stood at 7.25 ± 1.23 L/kg. The Vd in data set [3] (both sexes, Wistar, rat, in vivo, iv, 0.75 mg/kg, i.v., 0.75 mg/kg body weight, read-out: VZ (apparent volume of distribution), as printed in text) turned out to be 87.2 L/kg. Moreover, in data set [3] (setting [8]), the exposure AUC(0-t) is 0.11 ± 0.03 ng·h/mL, the Cmax is 0.2 ± 0.03 ng/mL, the time of peak concentration (Tmax) turned out to be 4.98 ± 0.6 min and the k el is 0.0002 s⁻¹. For the same compound, in data set [3] (setting [8]), the AUC(0-inf) was 0.16 ± 0.02 ng·h/mL and the half-life is 57.6 ± 4.2 min. Further, in data set [3] (both sexes, Wistar, rat, in vivo, po, 0.75 mg/kg body weight, read-out: CL (apparent total body clearance) (converted)), the CL/F was 75 mL/min/kg. In data set [3] (i.v., 0.75 mg/kg body weight), the “CL (apparent total body clearance)” value was found to be 83.7 ± 10.3 mL/min/kg. Also, the “VZ (apparent volume of distribution)” value in data set [3] (p.o., 0.75 mg/kg body weight) turned out to be 6.24 ± 0.73 L/kg. The “time point of the peak concentration” value in data set [3] (p.o., first time point) turned out to be 5 min. The estrogenic potency result in the data set with estrogenic receptors is reported as “comparable to that of ZEN”.

`CC1CCC[C@H](O)CCC/C=C/c2cc(O)cc(O)c2C(=O)O1` (stereo partly drawn) [α-ZEL, α-zearalenol]: in data set [3], the “amount observed in plasma after intravenous administration of ZEN-14G” value was “small amount” and the “level detected in plasma after oral administration of ZEN-14G” value was “trace level”.

With `CC1CCC[C@H](O)CCC/C=C/c2cc(OC3OC(CO)C(O)C(O)C3O)cc(O)c2C(=O)O1` (stereo partly drawn) [α-ZEL-14G], the “amount observed in plasma after intravenous administration of ZEN-14G” value in data set [3] is given as “small amount”.
